ChEMBL document CHEMBL3085665, “Gallic acid is the major component of grape seed extract that inhibits amyloid fibril formation” (Bioorg Med Chem Lett, 2013)
Activity calls are given as the source filed them. No cut-off for these calls is given here.

Legend:
Homo sapiens [1] = species on record: Homo sapiens; assay: Inhibition of reduced carboxymethylated-kappa-casein (unknown origin) conversion to amyloid fibrils at 1:2 protein to compound molar ratio after 1000 mins by thioflavin T fluorescence assay relative to control
Homo sapiens [2] = species on record: Homo sapiens; assay: Inhibition of reduced carboxymethylated-kappa-casein (unknown origin) conversion to amyloid fibrils at 0.1:1 to 2:1 compound to protein molar ratio after 1000 mins by thioflavin T fluorescence assay
Homo sapiens [3] = species on record: Homo sapiens; assay: Inhibition of reduced carboxymethylated-kappa-casein (unknown origin) conversion to amyloid fibrils at 1:1 protein to compound molar ratio after 1000 mins by thioflavin T fluorescence assay relative to control
[4] = target: Amyloid-beta precursor protein (Homo sapiens) (UniProt P05067); assay: Inhibition of amyloid beta (1 to 40) (unknown origin) aggregation at 1:0.1 to 1:2 protein to compound molar ratio after 20 hrs by transmission electron microscopic analysis
Homo sapiens [5] = species on record: Homo sapiens; assay: Inhibition of reduced carboxymethylated-kappa-casein (unknown origin) conversion to amyloid fibrils assessed as decrease in number of long, unbranched and mature amyloid fibrils at 1:2 protein to compound molar ratio after 1000 mins by transmission electron microscopic analysis
[6] = target: Amyloid-beta precursor protein (Homo sapiens) (UniProt P05067); assay: Inhibition of amyloid beta (1 to 40) (unknown origin) aggregation at 1:0.1 to 1:2 protein to compound molar ratio up to 10 hrs by thioflavin T fluorescence assay
[7] = Reduction in RCM-kappa-casein-induced cytotoxicity against rat PC12 cells after 48 hrs by MTT assay; format: functional, cell-based; conditions: PC-12
[8] = (§1) Inhibition of reduced carboxymethylated-kappa-casein (unknown origin) conversion to amyloid fibrils after 1000 mins by thioflavin T fluorescence assay; parameters: species or system Homo sapiens
Homo sapiens [9] = species on record: Homo sapiens; assay: as §1
[10] = Cytotoxicity against rat PC12 cells assessed as cell viability at 5 uM after 48 hrs by MTT assay; format: cell-based; conditions: pc-12, 48 h
PC-12 = assay: Effect on RCM-kappa-casein-induced cytotoxicity against rat PC12 cells at 1:0.1 to 1:0.5 protein to compound molar ratio after 48 hrs by MTT assay; format: functional, cell-based
Homo sapiens [11] = species on record: Homo sapiens; assay: Inhibition of reduced carboxymethylated-kappa-casein (unknown origin) conversion to amyloid fibrils at 1:0.1 protein to compound molar ratio after 1000 mins by thioflavin T fluorescence assay relative to control
Homo sapiens [12] = species on record: Homo sapiens; assay: Inhibition of reduced carboxymethylated-kappa-casein (unknown origin) conversion to amyloid fibrils at 1:0.5 protein to compound molar ratio after 1000 mins by thioflavin T fluorescence assay relative to control
Homo sapiens [13] = species on record: Homo sapiens; assay: Binding affinity to reduced carboxymethylated-kappa-casein (unknown origin) at 1:2 protein to compound molar ratio after 20 hrs by far-UV-CD spectroscopic analysis
[14] = Effect on RCM-kappa-casein-induced cytotoxicity against rat PC12 cells assessed as increase in cell viability at 1:2 protein to compound molar ratio after 48 hrs by MTT assay relative to control; format: functional, PC-12

Chain of Amyloid-beta precursor protein (Homo sapiens) (P05067 whole entry): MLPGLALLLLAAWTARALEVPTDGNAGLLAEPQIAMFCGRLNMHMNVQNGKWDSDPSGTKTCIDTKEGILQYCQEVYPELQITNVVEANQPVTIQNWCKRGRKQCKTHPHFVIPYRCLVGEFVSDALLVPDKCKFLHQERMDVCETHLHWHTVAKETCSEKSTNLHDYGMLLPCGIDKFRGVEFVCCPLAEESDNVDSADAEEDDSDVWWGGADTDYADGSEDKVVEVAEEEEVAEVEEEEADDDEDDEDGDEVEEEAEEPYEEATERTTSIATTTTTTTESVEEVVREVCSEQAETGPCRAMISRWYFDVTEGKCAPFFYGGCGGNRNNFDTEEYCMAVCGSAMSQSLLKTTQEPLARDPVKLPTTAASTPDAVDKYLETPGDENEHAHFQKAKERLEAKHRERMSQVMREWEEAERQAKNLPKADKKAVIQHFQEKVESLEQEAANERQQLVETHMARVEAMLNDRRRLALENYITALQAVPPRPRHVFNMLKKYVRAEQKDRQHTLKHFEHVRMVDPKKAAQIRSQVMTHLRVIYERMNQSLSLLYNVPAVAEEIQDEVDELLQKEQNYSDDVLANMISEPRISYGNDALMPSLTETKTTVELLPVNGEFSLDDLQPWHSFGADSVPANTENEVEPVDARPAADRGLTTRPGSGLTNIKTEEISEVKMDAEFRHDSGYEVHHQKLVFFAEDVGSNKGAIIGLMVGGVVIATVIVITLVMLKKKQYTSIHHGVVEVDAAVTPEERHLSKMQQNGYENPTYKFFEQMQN

SMILES: C[C@@H]1O[C@@H](OC[C@H]2O[C@@H](Oc3cc4c(O)cc(O)cc4[o+]c3-c3ccc(O)c(O)c3)[C@H](O)[C@@H](O)[C@@H]2O)[C@H](O)[C@H](O)[C@H]1O
- inhibition (Homo sapiens [1]): 54%

SMILES: Oc1cc(O)c2c(c1)OC(c1ccc(O)c(O)c1)C(O)C2 (configuration not stated)
- inhibition (Homo sapiens [2]): inactive

SMILES: Oc1cc(O)c2c(c1)O[C@H](c1ccc(O)c(O)c1)[C@H](O)C2
- inhibition (Homo sapiens [2]): inactive

SMILES: O=C(O)c1cc(O)c(O)c(O)c1 [GALLIC ACID]
- inhibition (Homo sapiens [3]): 87%
- inhibition [4]: Active
- inhibition (Homo sapiens [5]): Active
- inhibition [6]: Active
- Activity [7]: Dose-dependent effect
- inhibition (Homo sapiens [1]): 98%
- IC50 [8]: 7.7 µM
- inhibition (Homo sapiens [9]): Dose-dependent effect
- Activity [10]: Non-toxic
- Activity (PC-12): inactive
- inhibition (Homo sapiens [11]): 3%
- inhibition (Homo sapiens [12]): 54%
- Activity (Homo sapiens [13]): Active
- Activity [14]: 88%
